# Source: patent US5312919A, “Photooxidation products and derivatives thereof of merocyanine-540, their preparation and uses” (priority 1992, dated 1994)
# Like-named read-outs stand apart in the source and are kept apart here.
# Columns and labels:
# [1] = test system: MT-4 cells; assay: Effect on viability of MT-4 cells; format: cell-based; conditions: experimental conditions of Table 8
# Procedure: (§1) Cell free human immunodeficiency virus (HIV-1) was either left untreated or treated with indicated doses of Merocil or Merodantoin for one hour at 37° C. and added to MT-4 target cells. After 4 hour incubation at 37° C., the cells were washed three times and further incubated in drug free fresh growth medium (complete RPMI-1640) at 37° C. for 4 days. On day four, 50% of the culture supernatant was replaced with fresh growth medium to prevent cell death due to possible nutrient depletion. The viability of the cell was determined on day 11 by MTT assay. […] The viability of the MT-4 cells was not affected by Merocil or Merodantoin under the experimental conditions described above.
# [2] = test system: human Burkitt lymphoma Daudi cells; assay: Cytotoxic effects on human Burkitt lymphoma Daudi cells (MTT assay); format: cell-based
# Procedure: Human Burkitt Lymphoma Daudi cells (1×10^6 cells/ml) were treated with different concentrations of Merodantoin. After overnight incubation at 37° C., the tumor cells kill was determined by MTT assay.
# Human Burkitt Lymphoma Daudi cells (1×10^6 cells/ml) were treated with different concentrations of Merocil. After overnight incubation at 37° C., the tumor cells kill was determined by MTT assay.
# (§2) Each cell type (1×10^6 cells/ml; in triplicate) was treated with indicated concentrations of Merocil or Merodantoin. After overnight (20 hr.) or 5 day incubation periods, the cell viability was determined by MTT assay and calculated as a percentage of untreated controls.
# [3] = test system: C-33A (carcinoma cervix, human); assay: Inhibition of cell proliferation, C-33A (MTT assay); format: cell-based; conditions: read-out: % inhibition of cell proliferation
# Procedure: (§3) Preactivated MC 540 is abbreviated as pMC 540. […] 52: 831-38 (1990); and T. Mosmann, J. Immulog. Methods 65: 55-63 (1983).
# as §2, with “merocil” for “Merocil”, “merodantoin.” for “Merodantoin.”, “controls. The toxicity in vehicle only (cremophor EL) controls was not detectable at highest dose tested.” for “controls.”
# [4] = test system: normal human peripheral blood mononuclear cells; assay: Cytotoxicity on normal human peripheral blood mononuclear cells (trypan blue dye exclusion); format: cell-based; conditions: doses of Table 1
# Procedure: (§4) Preactivated MC 540 is abbreviated as pMC 540.
# (§5) Merocil and Merodantoin were dissolved in cremophor EL whereas pMC 540 was prepared in 10% aqueous ethanol. […] Fresh human peripheral mononucleas cells (1×10^6 cells/ml) were treated with indicated concentration of compounds. After overnight incubation at 37° C., cell viability was determined by trypan blue dye exclusion method.
# [5] = as above; format: cell-based; conditions: human, peripheral blood mononuclear cells, overnight, 37° C., read-out: % cell kill (mean ± S.E.M.)
# Procedure: as §4, §5
# [6] = test system: BT-20 (breast, adenocarcinoma); assay: Inhibition of cell proliferation, BT-20 (MTT assay); format: cell-based; conditions: Homo sapiens, read-out: % inhibition of cell proliferation
# Source text: Preactivated MC 540 is abbreviated as pMC 540. […] 52: 831-38 (1990); and T. Mosmann, J. Immulog. Methods 65: 55-63 (1983). […]
# [7] = test system: 8226 (multiple myeloma); assay: Inhibition of cell proliferation, 8226 (MTT assay); format: cell-based; conditions: 24 h, read-out: % inhibition of cell proliferation
# Procedure: as §3
# (§6) Each cell type (1×10^6 cells/ml; in triplicate) was treated with indicated concentrations of merocil or merodantoin. […] The cytotoxicity in vehicle only (cremophor EL) controls was not detectable at highest dose tested.
# [8] = test system: U266B1 (myeloma); assay: Inhibition of cell proliferation, U266B1 (MTT assay); format: cell-based; conditions: 24 h, read-out: % inhibition of cell proliferation
# Procedure: as §3, §6
# [9] = test system: DU 145 (prostate, carcinoma, human); assay: Inhibition of cell proliferation, DU 145 (MTT assay); format: cell-based; conditions: read-out: % inhibition of cell proliferation
# Procedure: as §3
# as §2, with “merocil” for “Merocil”, “merodantoin.” for “Merodantoin.”, “controls. The toxicity in vehicle only (cremophor EL) controls was not detectable at highest dose tested.” for “controls.”
# [10] = test system: certain tumor cells; assay: Inhibition of proliferation of tumor cells (overall conclusion); format: cell-based
# Source text: as §3
# [11] = test system: L1210 mouse leukemia cells; assay: Combined effect on L1210 mouse leukemia cells (MTT assay); conditions: MC = 12.5 μg/ml; MD = 25 μg/ml; MZ = 25 μg/ml; overnight
# Procedure: The biological activities of the photooxidation products of MC 540 were determined. Preactivated MC 540 is abbreviated as pMC 540. Assays of antitumor activities of the products were carried out according to published standard methods.
# Mouse leukemia L1210 cells (1 × 10^6 cells/ml) were treated wit
# different combinations of the indicated compounds (isolated from
# preactivated merocyanine 540). After overnight incubation the cell kill
# [12] = test system: human immunodeficiency virus (HIV-1); assay: Inactivation of cell free human immunodeficiency virus (viability of MT-4 target cells, MTT assay); format: cell-based
# Procedure: as §3, §1
# [13] = test system: H.S. Sultan (multiple myeloma); assay: Inhibition of cell proliferation, H.S. Sultan (MTT assay); format: cell-based; conditions: 24 h, read-out: % inhibition of cell proliferation
# Procedure: as §3, §6
# [14] = test system: JEG-3 (choriocarcinoma, human); assay: Inhibition of cell proliferation, JEG-3 (MTT assay); format: cell-based; conditions: read-out: % inhibition of cell proliferation
# Procedure: as §3
# as §2, with “merocil” for “Merocil”, “merodantoin.” for “Merodantoin.”, “controls. The toxicity in vehicle only (cremophor EL) controls was not detectable at highest dose tested.” for “controls.”
# [15] = test system: MS 751 (cervix, carcinoma, human); assay: Inhibition of cell proliferation, MS 751 (MTT assay); format: cell-based; conditions: read-out: % inhibition of cell proliferation
# Procedure: as §3
# as §2, with “merocil” for “Merocil”, “merodantoin.” for “Merodantoin.”, “controls. The toxicity in vehicle only (cremophor EL) controls was not detectable at highest dose tested.” for “controls.”
# [16] = Homo sapiens, Daudi, read-out: % Cell Kill (means ± S.D.)
compound,measurement,setting,value
"CCCCN1C(=O)C(O)(OC)C(=O)N(CCCC)C1=S [Merocil, N,N'-Dibutyl-4,5 dihydro-5-hydroxy-5-methoxy-4-oxo-2-thiouracil]",viability of the MT-4 cells,[1],not affected
same,growth inhibition of cultured Daudi lymphoma cells,[2]; 12.5 μg/ml,virtually complete growth inhibition
same,cytotoxicity at 0.78 µg/mL,[2]; [16],4.75 ± 3.2%
same,cytotoxicity at 1.56 µg/mL,[2]; [16],16.5 ± 9.45%
same,cytotoxicity at 3.13 µg/mL,[2]; [16],36.8 ± 16.1%
same,cytotoxicity at 6.25 µg/mL,[2]; [16],87.2 ± 9.9%
same,cytotoxicity at 12.5 µg/mL,[2]; [16],100%
same,inhibition at 0.78 µg/mL,[3]; 20 h,2%
same,inhibition at 1.56 µg/mL,[3]; 20 h,9%
same,inhibition at 3.13 µg/mL,[3]; 20 h,35%
same,inhibition at 6.25 µg/mL,[3]; 20 h,36%
same,inhibition at 12.5 µg/mL,[3]; 20 h,49%
same,inhibition at 0.78 µg/mL,[3]; 120 h,23%
same,inhibition at 1.56 µg/mL,[3]; 120 h,26%
same,inhibition at 3.13 µg/mL,[3]; 120 h,46%
same,inhibition at 6.25 µg/mL,[3]; 120 h,89%
same,inhibition at 12.5 µg/mL,[3]; 120 h,97%
same,toxicity to normal human peripheral blood mononuclear cells,[4],relatively non-toxic
same,cytotoxicity,[5]; 0.78 μg/ml,2.67 ± 0.8%
same,cytotoxicity,[5]; 1.56 μg/ml,5 ± 0.67%
same,cytotoxicity,[5]; 3.13 μg/ml,4 ± 0.67%
same,cytotoxicity,[5]; 6.25 μg/ml,6%
same,cytotoxicity,[5]; 12.5 μg/ml,5 ± 0.71%
same,inhibition at 0.78 µg/mL,"[6]; BT-20, 48 h",3%
same,inhibition at 1.56 µg/mL,"[6]; BT-20, 48 h",0%
same,inhibition at 3.13 µg/mL,"[6]; BT-20, 48 h",2%
same,inhibition at 6.25 µg/mL,"[6]; BT-20, 48 h",0%
same,inhibition at 12.5 µg/mL,"[6]; BT-20, 48 h",11%
same,inhibition at 0.78 µg/mL,"[6]; BT-20, 96 h",11%
same,inhibition at 1.56 µg/mL,"[6]; BT-20, 96 h",22%
same,inhibition at 3.13 µg/mL,"[6]; BT-20, 96 h",41%
same,inhibition at 6.25 µg/mL,"[6]; BT-20, 96 h",20%
same,inhibition at 12.5 µg/mL,"[6]; BT-20, 96 h",8%
same,inhibition at 0.78 µg/mL,[7],17%
same,inhibition at 1.56 µg/mL,[7],24%
same,inhibition at 3.13 µg/mL,[7],26%
same,inhibition at 6.25 µg/mL,[7],25%
same,inhibition at 12.5 µg/mL,[7],55%
same,inhibition at 0.78 µg/mL,[8],3%
same,inhibition at 1.56 µg/mL,[8],6%
same,inhibition at 3.13 µg/mL,[8],21%
same,inhibition at 6.25 µg/mL,[8],8%
same,inhibition at 12.5 µg/mL,[8],8%
same,inhibition at 0.78 µg/mL,"[9]; DU-145, 20 h",0%
same,inhibition at 1.56 µg/mL,"[9]; DU-145, 20 h",0%
same,inhibition at 3.13 µg/mL,"[9]; DU-145, 20 h",0%
same,inhibition at 6.25 µg/mL,"[9]; DU-145, 20 h",5%
same,inhibition at 12.5 µg/mL,"[9]; DU-145, 20 h",3%
same,inhibition at 0.78 µg/mL,"[9]; DU-145, 120 h",26%
same,inhibition at 1.56 µg/mL,"[9]; DU-145, 120 h",33%
same,inhibition at 3.13 µg/mL,"[9]; DU-145, 120 h",71%
same,inhibition at 12.5 µg/mL,"[9]; DU-145, 120 h",93%
same,inhibiting the proliferation of certain tumor cells,[10],effective
same,% Cell Kill,[11],28%
same,inactivation of cell free HIV,[12]; 75 μg/ml dose,virtually complete inactivation of the virus
same,inactivating human immunodeficiency virus (HIV-1),[12]; conclusion,effective
same,inhibition at 0.78 µg/mL,[13],23%
same,inhibition at 1.56 µg/mL,[13],28%
same,inhibition at 3.13 µg/mL,[13],24%
same,inhibition at 6.25 µg/mL,[13],63%
same,inhibition at 12.5 µg/mL,[13],68%
same,inhibition at 0.78 µg/mL,"[14]; JEG-3, 20 h",0%
same,inhibition at 1.56 µg/mL,"[14]; JEG-3, 20 h",3%
same,inhibition at 3.13 µg/mL,"[14]; JEG-3, 20 h",32%
same,inhibition at 6.25 µg/mL,"[14]; JEG-3, 20 h",68%
same,inhibition at 12.5 µg/mL,"[14]; JEG-3, 20 h",86%
same,inhibition at 0.78 µg/mL,"[14]; JEG-3, 120 h",8%
same,inhibition at 1.56 µg/mL,"[14]; JEG-3, 120 h",11%
same,inhibition at 3.13 µg/mL,"[14]; JEG-3, 120 h",11%
same,inhibition at 6.25 µg/mL,"[14]; JEG-3, 120 h",51%
same,inhibition at 12.5 µg/mL,"[14]; JEG-3, 120 h",86%
same,inhibition at 0.78 µg/mL,"[15]; MS751, 20 h",1%
same,inhibition at 1.56 µg/mL,"[15]; MS751, 20 h",7%
same,inhibition at 3.13 µg/mL,"[15]; MS751, 20 h",12%
same,inhibition at 6.25 µg/mL,"[15]; MS751, 20 h",20%
same,inhibition at 12.5 µg/mL,"[15]; MS751, 20 h",20%
same,inhibition at 0.78 µg/mL,"[15]; MS751, 120 h",10%
same,inhibition at 1.56 µg/mL,"[15]; MS751, 120 h",11%
same,inhibition at 3.13 µg/mL,"[15]; MS751, 120 h",12%
same,inhibition at 6.25 µg/mL,"[15]; MS751, 120 h",29%
same,inhibition at 12.5 µg/mL,"[15]; MS751, 120 h",89%
"CC1(O)Oc2ccccc2N1CCCS(=O)(=O)O (centres unmarked) [Meroxazole, 2-Hydroxy-2-methyl-3-[3'-sulfopropyl]-benzoxazolin]",cytotoxicity at 25 µg/mL,"[2]; Homo sapiens, Daudi, 25 μg/ml, representative experiment, read-out: % Cell Kill",0%
same,cytotoxicity at 50 µg/mL,"[2]; Homo sapiens, Daudi, 50 μg/ml, representative experiment, read-out: % Cell Kill",0%
same,cytotoxicity at 75 µg/mL,"[2]; Homo sapiens, Daudi, 75 μg/ml, representative experiment, read-out: % Cell Kill",0%
same,cytotoxicity at 100 µg/mL,"[2]; Homo sapiens, Daudi, 100 μg/ml, representative experiment, read-out: % Cell Kill",0%
same,cytotoxicity at 125 µg/mL,"[2]; Homo sapiens, Daudi, 125 μg/ml, representative experiment, read-out: % Cell Kill",0%
same,cytotoxicity at 500 µg/mL,"[2]; Homo sapiens, Daudi, 500 μg/ml, representative experiment, read-out: % Cell Kill",32%
same,cytotoxicity to Daudi cells (conclusion),[2]; doses of Table 7,not cytotoxic
same,% Cell Kill,[11],Zero
